The source made the active and inactive calls. The calls are words filed in the database; no cut-off is given here.
Legend:
SF-295 = test: Cytotoxicity against human SF295 cells after 48 hrs by sulforhodamine B assay; assay type: functional, cell-based; conditions: SF-295, 48 h
HEp-2 = test: Cytotoxicity against human Hep2 cells after 48 hrs by sulforhodamine B assay; assay type: functional, cell-based; conditions: HEp-2, 48 h
PC-3 = test: cells; conditions: Homo sapiens, PC-3, 48 h
Description: Cytotoxicity against human PC3 cells after 48 hrs by sulforhodamine B assay

A549 = test: cells; conditions: Homo sapiens, A549, 48 h
Description: Cytotoxicity against human A549 cells after 48 hrs by sulforhodamine B assay

MCF7 [1] = test: cells; conditions: Homo sapiens, MCF7, 48 h
Description: Cytotoxicity against human MCF7 cells after 48 hrs by sulforhodamine B assay

HCT-15 = test: cells; conditions: Homo sapiens, HCT-15, 48 h
Description: Cytotoxicity against human HCT15 cells after 48 hrs by sulforhodamine B assay

MCF7 [2] = test: Cell cycle arrest in human MCF7 cells assessed as accumulation at G2/M-phase at 5 uM after 24 hrs using propidium iodide staining by flow cytometry (reference value: 19.91%); assay type: functional
MCF7 [3] = test: Cell cycle arrest in human MCF7 cells assessed as accumulation in S-phase at 5 uM after 24 hrs using propidium iodide staining by flow cytometry (reference value: 25.29%); assay type: functional
MCF7 [4] = test: Cell cycle arrest in human MCF7 cells assessed as accumulation at G1/G0-phase at 5 uM after 24 hrs using propidium iodide staining by flow cytometry (reference value: 47.42%); assay type: functional
MCF7 [5] = test: Cell cycle arrest in human MCF7 cells assessed as accumulation at sub-G1 phase at 5 uM after 24 hrs using propidium iodide staining by flow cytometry (reference value: 7.69%); assay type: functional
MCF7 [6] = test: Cell cycle arrest in human MCF7 cells assessed as accumulation at G2/M-phase at 1 uM after 24 hrs using propidium iodide staining by flow cytometry (reference value: 19.91%); assay type: functional
MCF7 [7] = test: Cell cycle arrest in human MCF7 cells assessed as accumulation in S-phase at 1 uM after 24 hrs using propidium iodide staining by flow cytometry (reference value: 25.29%); assay type: functional
MCF7 [8] = test: Cell cycle arrest in human MCF7 cells assessed as accumulation at G1/G0-phase at 1 uM after 24 hrs using propidium iodide staining by flow cytometry (reference value: 47.42%); assay type: functional
MCF7 [9] = test: Cell cycle arrest in human MCF7 cells assessed as accumulation at sub-G1 phase at 1 uM after 24 hrs using propidium iodide staining by flow cytometry (reference value: 7.69%); assay type: functional
MCF7 [10] = test: Induction of apoptosis in human MCF7 cells assessed as DNA ladder formation at 1 uM after 24 hrs using ethidium bromide staining by agarose gel electrophoresis; assay type: functional, cell-based

| Compound | IC50 (SF-295) | IC50 (HEp-2) | IC50 (PC-3) | IC50 (A549) | IC50 (MCF7 [1]) | IC50 (HCT-15) | Activity (MCF7 [2]) | Activity (MCF7 [3]) | Activity (MCF7 [4]) | Activity (MCF7 [5]) | Activity (MCF7 [6]) | Activity (MCF7 [7]) | Activity (MCF7 [8]) | Activity (MCF7 [9]) | Activity (MCF7 [10]) |
| --- | --- | --- | --- | --- | --- | --- | --- | --- | --- | --- | --- | --- | --- | --- | --- |
| CCCCCCCCCCc1cn([C@@H]2c3cc4c(cc3[C@@H](c3cc(OC)c(O)c(OC)c3)[C@H]3C(=O)OC[C@@H]32)OCO4)nn1 | 13 µM | 19 µM | 19 µM | 30 µM | 11 µM | 15 µM |  |  |  |  |  |  |  |  |  |
| CCCCc1cn([C@@H]2c3cc4c(cc3[C@@H](c3cc(OC)c(OC)c(OC)c3)[C@H]3C(=O)OC[C@@H]32)OCO4)nn1 | 8.1 µM | 9.6 µM | 6.6 µM | 82 µM | 9.8 µM | 11 µM |  |  |  |  |  |  |  |  |  |
| CCCCCc1cn([C@@H]2c3cc4c(cc3[C@@H](c3cc(OC)c(O)c(OC)c3)[C@H]3C(=O)OC[C@@H]32)OCO4)nn1 | 4.3 µM | 21 µM | 4.7 µM | 26 µM | 14 µM | 2.1 µM |  |  |  |  |  |  |  |  |  |
| CCCCCCCCc1cn([C@@H]2c3cc4c(cc3[C@@H](c3cc(OC)c(O)c(OC)c3)[C@H]3C(=O)OC[C@@H]32)OCO4)nn1 | 5.7 µM | 3.8 µM | 5.1 µM | > 100 µM | 11 µM | 13 µM |  |  |  |  |  |  |  |  |  |
| CCCCCCCc1cn([C@@H]2c3cc4c(cc3[C@@H](c3cc(OC)c(O)c(OC)c3)[C@H]3C(=O)OC[C@@H]32)OCO4)nn1 | 10 µM | 6 µM | 5.8 µM | 45 µM | 13 µM | 15 µM |  |  |  |  |  |  |  |  |  |
| CCCCc1cn([C@@H]2c3cc4c(cc3[C@@H](c3cc(OC)c(O)c(OC)c3)[C@H]3C(=O)OC[C@@H]32)OCO4)nn1 | 21 µM | 17 µM | 12 µM | 35 µM | 20 µM | 34 µM |  |  |  |  |  |  |  |  |  |
| CCCc1cn([C@@H]2c3cc4c(cc3[C@@H](c3cc(OC)c(OC)c(OC)c3)[C@H]3C(=O)OC[C@@H]32)OCO4)nn1 | 3.6 µM | 1.6 µM | 5.1 µM | 39 µM | 1.4 µM | 0.03 µM | 1.07% | 11.44% | 10.56% | 78.16% | 3.39% | 16.17% | 27.81% | 55.65% | Active |
| COc1cc([C@@H]2c3cc4c(cc3[C@@H](n3cc(CO)nn3)[C@H]3COC(=O)[C@H]23)OCO4)cc(OC)c1OC | 2.1 µM | 0.06 µM | 0.06 µM | > 100 µM | 0.01 µM | 15 µM |  |  |  |  |  |  |  |  |  |
| CCCCCCCCc1cn([C@@H]2c3cc4c(cc3[C@@H](c3cc(OC)c(OC)c(OC)c3)[C@H]3C(=O)OC[C@@H]32)OCO4)nn1 | 14 µM | 18 µM | 17 µM | > 100 µM | 9.3 µM | > 100 µM |  |  |  |  |  |  |  |  |  |
| CCc1cn([C@@H]2c3cc4c(cc3[C@@H](c3cc(OC)c(O)c(OC)c3)[C@H]3C(=O)OC[C@@H]32)OCO4)nn1 | 4.8 µM | 0.05 µM | 0.06 µM | 17 µM | 0.04 µM | 1.9 µM |  |  |  |  |  |  |  |  |  |
| CCCCCCc1cn([C@@H]2c3cc4c(cc3[C@@H](c3cc(OC)c(O)c(OC)c3)[C@H]3C(=O)OC[C@@H]32)OCO4)nn1 | 18 µM | > 100 µM | 8.7 µM | 26 µM | 19 µM | 11 µM |  |  |  |  |  |  |  |  |  |
| CCCCCc1cn([C@@H]2c3cc4c(cc3[C@@H](c3cc(OC)c(OC)c(OC)c3)[C@H]3C(=O)OC[C@@H]32)OCO4)nn1 | 24 µM | 7.7 µM | 8.4 µM | 39 µM | 9.5 µM | 11 µM |  |  |  |  |  |  |  |  |  |
| CCCc1cn([C@@H]2c3cc4c(cc3[C@@H](c3cc(OC)c(O)c(OC)c3)[C@H]3C(=O)OC[C@@H]32)OCO4)nn1 | 2.3 µM | 2.9 µM | 0.2 µM | 27 µM | 5.7 µM | 0.8 µM |  |  |  |  |  |  |  |  |  |
| COc1cc([C@@H]2c3cc4c(cc3[C@@H](n3cc(CO)nn3)[C@H]3COC(=O)[C@H]23)OCO4)cc(OC)c1O | 15 µM | 6.7 µM | 8.2 µM | 18 µM | 0.6 µM | 18 µM |  |  |  |  |  |  |  |  |  |
| COc1cc([C@@H]2c3cc4c(cc3[C@@H](O[C@@H]3O[C@@H]5CO[C@@H](C)O[C@H]5[C@H](O)[C@H]3O)[C@H]3COC(=O)[C@H]23)OCO4)cc(OC)c1O [ETOPOSIDE] | 13.5 µM |  |  |  | 19 µM | 7.15 µM |  |  |  |  |  |  |  |  |  |
| CCCCCCCc1cn([C@@H]2c3cc4c(cc3[C@@H](c3cc(OC)c(OC)c(OC)c3)[C@H]3C(=O)OC[C@@H]32)OCO4)nn1 | 25 µM | 9.8 µM | 23 µM | 36 µM | 6.4 µM | 45 µM |  |  |  |  |  |  |  |  |  |
| CCCCCCCCCCc1cn([C@@H]2c3cc4c(cc3[C@@H](c3cc(OC)c(OC)c(OC)c3)[C@H]3C(=O)OC[C@@H]32)OCO4)nn1 | 6.2 µM | 5.8 µM | 5.5 µM | > 100 µM | 5.7 µM | 29 µM |  |  |  |  |  |  |  |  |  |
| CCc1cn([C@@H]2c3cc4c(cc3[C@@H](c3cc(OC)c(OC)c(OC)c3)[C@H]3C(=O)OC[C@@H]32)OCO4)nn1 | 1.8 µM | 0.06 µM | 0.03 µM | 35 µM | 0.4 µM | 0.4 µM | 1.74% | 2.84% | 16.28% | 80.1% | 1.96% | 5.99% | 22.27% | 69.34% | Active |
| CCCCCCc1cn([C@@H]2c3cc4c(cc3[C@@H](c3cc(OC)c(OC)c(OC)c3)[C@H]3C(=O)OC[C@@H]32)OCO4)nn1 | 10 µM | 10 µM | 6.4 µM | 35 µM | 8.6 µM | 27 µM |  |  |  |  |  |  |  |  |  |

Reference: ChEMBL document CHEMBL1781969, “4β-[(4-Alkyl)-1,2,3-triazol-1-yl] podophyllotoxins as anticancer compounds: design, synthesis and biological evaluation” (Eur J Med Chem, 2011)
